Test results from patent publication US20260055088A1, “HETEROCYCLIC COMPOUND, METHOD FOR PREPARING SAME, AND PHARMACEUTICAL USE THEREOF” (Jiangsu Hengrui Pharmaceuticals Co., Ltd., priority 2022, published 2026).

Columns and labels:
[1] = Effect on body weight in rat incision pain model; format: in vivo, SD rats; settings: i.g./one dose
Procedure: Nine SD rats, weighing 170-190 g, were selected for this study. The mechanical pain threshold was measured using an electronic aesthesiometer. Then an incision pain surgery was performed. During the surgery, after the rats were anesthetized with Zoletil (Zoletil-50, 250 mg, diluted with normal saline to 50 mL after being dissolved, injected at a dose of 2 mL per 200 g of body weight), a 1 cm long incision was made in the middle of the plantar surface of the left hind paw using a No. 10 scalpel blade, cutting through the skin and fascia, and the incision was closed using 3-0 sterile silk sutures. The injured area was disinfected with penicillin, and the animals were returned to their original place to recover overnight. After the overnight recovery, oral gavage administration was performed. Five hours after administration (about 24 h after surgery), the mechanical pain threshold was measured using an electronic aesthesiometer.
The analgesic efficacy of the compound of Example 16 in the rat incision pain model is shown in FIG. 3 and Table 7, and its effect on body weight is shown in FIG. 4. The analgesic efficacy of the compound of Example 32 in the rat incision pain model is shown in FIG. 5 and Table 7, and its effect on body weight is shown in FIG. 6.

[2] = molecular target: Nav1.8 ion channel stably expressed on HEK293 cells (Homo sapiens (Human), UniProt Q9Y5Y9); assay: Inhibitory activity against Nav1.8, manual patch clamp; format: cell-based; settings: resting protocol (-80 mV to 10 mV), 1 μM TTX, read-out: IC50 for the inhibition of Nav1.8 channel activity

With `CO/N=C(\N)c1cc(NC(=O)[C@@H]2O[C@@](C)(C(F)(F)F)[C@@H](C)[C@H]2c2ccc(F)c(F)c2OC)ccn1` [Example 16] the “Effect on body weight of rats” value [1] was “did not influence the body weight of rats” and the IC50 [2] was 0.33 nM.
With `COc1c([C@H]2[C@H](C(=O)Nc3ccnc(/C(N)=N/O)c3)O[C@@](C)(C(F)(F)F)[C@H]2C)ccc(F)c1F` [Example 32] the “Effect on body weight of rats” value [1] was “did not influence the body weight of rats” and the IC50 [2] was 0.93 nM.
